The subject of one test is MV-4-11. In words: Oncology cell growth assay MV-4-11 (CellTiter Glo, 72 hours). Format: cell-based. Conditions: Homo sapiens, MV4-11, 72 h; MV-4-11 cell growth inhibitory activity, 3d. In a few lines: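 Growth read by CellTiter Glo luminescence after 72 h compound exposure of MV-4-11 AML cells (MLL-AF4), using 8-point 1:3 series to 10 μM final in 0.2% DMSO. Data normalized to DMSO wells, four-parameter fit yields pIC50.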
Background: In ATP-based viability assays light output follows the ATP content of the culture.

The subject of a further test is bromodomain. The test can be described thus: Bromodomain cell assays of Example 40 (at least one of them). Conditions: in at least one of the bromodomain cell assays described in Example 40. The class given is cell-based. In a few lines:
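Growth inhibition: 3000 MV-4-11, MOLM-13, MM.1S or neuroblastoma cells/well got an 8-point 1:3 series from 10 μM top (0.2% DMSO) for 72 h, then CellTiter-Glo luminescence. Myc reporter: MV-4-11 with E-box firefly luciferase, 24 h exposure, One-Glo luminescence plus CellTiter-Fluo cell count. pIC50 from four-parameter fit.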

pIC50: −log10 of the molar value.

Broadly, the IC50 is the concentration that gives 50% inhibition. Higher therefore signals a need for much substance. For orientation: pIC50 means the IC50 on a negative log10 scale, so that one unit is a factor of ten. A lower pIC50 goes with a high IC50.

Consider `Cc1noc(C)c1-c1cnc2c(-c3ccccc3)cn(S(=O)(=O)c3ccccc3)c2c1` [P-0077, 4-[1-(benzenesulfonyl)-3-phenyl-pyrrolo[3,2-b]pyridin-6-yl]-3,5-dimethyl-isoxazole], for which the IC50 with MV-4-11 is 1 to 10 µM. The molecule also gave a pIC50 with bromodomain of more than 5.00.
In the same order, the values of `CCS(=O)(=O)n1cc(C(OC)C2CCC(F)(F)CC2)c2cc(-c3c(C)noc3C)cnc21` (stereo not shown) [P-0078, 4-[3-[(4,4-difluorocyclohexyl)-methoxy-methyl]-1-ethylsulfonyl-pyrrolo[2,3-b]pyridin-5-yl]-3,5-dimethyl-isoxazole] are 1 to 10 µM and more than 5.00.
In the same order, the values of `Cc1noc(C)c1-c1cnc2c(-c3cccnc3)cn(S(=O)(=O)c3ccccc3)c2c1` [P-0084, 4-[1-(benzenesulfonyl)-3-(3-pyridyl)pyrrolo[3,2-b]pyridin-6-yl]-3,5-dimethyl-isoxazole] are not above 1 µM and more than 5.00.
The matching figures for `Cc1noc(C)c1-c1cnc2[nH]cc(C(c3ccc(F)cc3)(C3CC3)C3CC3)c2c1` [P-0085, 4-[3-[dicyclopropyl-(4-fluorophenyl)methyl]-1H-pyrrolo[2,3-b]pyridin-5-yl]-3,5-dimethyl-isoxazole]: 1 to 10 µM and more than 5.00.
The molecule `COC(c1c[nH]c2ncc(-c3c(C)noc3C)cc12)C1CCS(=O)(=O)CC1` (stereo not shown) [P-0089, 4-[[5-(3,5-dimethylisoxazol-4-yl)-1H-pyrrolo[2,3-b]pyridin-3-yl]-methoxy-methyl]thiane 1,1-dioxide] showed a half-maximal inhibitory concentration (IC50) in the test on MV-4-11 of 1 to 10 µM. Besides, the pIC50 with bromodomain was more than 5.00.
The matching figures for `Cc1noc(C)c1-c1cnc2c(c1)c(C(O)C1CCSCC1)cn2S(=O)(=O)c1ccccc1` (stereo not shown) [P-0090, [1-(benzenesulfonyl)-5-(3,5-dimethylisoxazol-4-yl)pyrrolo[2,3-b]pyridin-3-yl]-tetrahydrothiopyran-4-yl-methanol]: 1 to 10 µM and more than 5.00.
In the same order, the values of `Cc1noc(C)c1-c1cnc2[nH]cc(CC3CCS(=O)(=O)CC3)c2c1` [P-0098, 4-[[5-(3,5-dimethylisoxazol-4-yl)-1H-pyrrolo[2,3-b]pyridin-3-yl]methyl]thiane 1,1-dioxide] are 1 to 10 µM and more than 5.00.
`Cc1noc(C)c1-c1cnc2c(-c3cnc(C4CC4)nc3)cn(S(=O)(=O)C3CCCC3)c2c1` [P-0103, 4-[1-cyclopentylsulfonyl-3-(2-cyclopropylpyrimidin-5-yl)pyrrolo[3,2-b]pyridin-6-yl]-3,5-dimethyl-isoxazole] gave a half-maximal inhibitory concentration (IC50) in the test with MV-4-11 of 1 to 10 µM. This molecule also showed a negative logarithm of the IC50 (pIC50) in the test with bromodomain of more than 5.00.
`COc1ncc(-c2cn(S(=O)(=O)c3ccccc3)c3cc(-c4c(C)noc4C)cnc23)cn1` [P-0104, 4-[1-(benzenesulfonyl)-3-(2-methoxypyrimidin-5-yl)pyrrolo[3,2-b]pyridin-6-yl]-3,5-dimethyl-isoxazole]: the concentration for half-maximal inhibition (IC50) with MV-4-11 lay in the range of 1 to 10 µM. The negative-log IC50 (pIC50) in the test on bromodomain was more than 5.00.
The matching figures for `COc1ncc(-c2cn(S(=O)(=O)C3CCCC3)c3cc(-c4c(C)noc4C)cnc23)cn1` [P-0105, 4-[1-cyclopentylsulfonyl-3-(2-methoxypyrimidin-5-yl)pyrrolo[3,2-b]pyridin-6-yl]-3,5-dimethyl-isoxazole]: 1 to 10 µM and more than 5.00.
Regarding `Cc1noc(C)c1-c1cnc2c(c1)c(CC1CCN(C(=O)C(F)(F)F)CC1)cn2C` [P-0106, 1-[4-[[5-(3,5-dimethylisoxazol-4-yl)-1-methyl-pyrrolo[2,3-b]pyridin-3-yl]methyl]-1-piperidyl]-2,2,2-trifluoro-ethanone], the IC50 in the test on MV-4-11 was not above 1 µM. The molecule also showed a pIC50 in the test on bromodomain of more than 5.00.
On to `Cc1noc(C)c1-c1cnc2c(-c3cnn(C)c3)cn(S(=O)(=O)c3ccccc3)c2c1` [P-0110, 4-[1-(benzenesulfonyl)-3-(1-methylpyrazol-4-yl)pyrrolo[3,2-b]pyridin-6-yl]-3,5-dimethyl-isoxazole], for which the IC50 in the test on MV-4-11 was not above 1 µM. The molecule also had a pIC50 in the test with bromodomain of more than 5.00.
In the same order, the values of `CCCS(=O)(=O)n1cc(-c2cnn(C)c2)c2ncc(-c3c(C)noc3C)cc21` [P-0111, 3,5-dimethyl-4-[3-(1-methylpyrazol-4-yl)-1-propylsulfonyl-pyrrolo [3,2-b]pyridin-6-yl] isoxazole] are not above 1 µM and more than 5.00.
In the same order, the values of `Cc1noc(C)c1-c1cnc2c(-c3cnn(C)c3)cn(S(=O)(=O)C3CCCC3)c2c1` [P-0112, 4-[1-cyclopentylsulfonyl-3-(1-methylpyrazol-4-yl)pyrrolo[3,2-b]pyridin-6-yl]-3,5-dimethyl-isoxazole] are not above 1 µM and more than 5.00.
In the same order, the values of `Cc1noc(C)c1-c1cnc2c(c1)c(CC1CCN(S(=O)(=O)c3ccccc3)CC1)cn2C` [P-0113, 4-[3-[[1-(benzenesulfonyl)-4-piperidyl]methyl]-1-methyl-pyrrolo[2,3-b]pyridin-5-yl]-3,5-dimethyl-isoxazole] are 1 to 10 µM and more than 5.00.
`Cc1noc(C)c1-c1cnc2c(c1)c(CC1CCN(C(=O)c3ccccc3)CC1)cn2C` [P-0115, [4-[[5-(3,5-dimethylisoxazol-4-yl)-1-methyl-pyrrolo[2,3-b]pyridin-3-yl]methyl]-1-piperidyl]-phenyl-methanone]: the IC50 with MV-4-11 was not above 1 µM. In the test with bromodomain, the pIC50 is more than 5.00.
In the same order, the values of `CCNC(=O)N1CCC(Cc2cn(C)c3ncc(-c4c(C)noc4C)cc23)CC1` [P-0117, 4-[[5-(3,5-dimethylisoxazol-4-yl)-1-methyl-pyrrolo[2,3-b]pyridin-3-yl]methyl]-N-ethyl-piperidine-1-carboxamide] are not above 1 µM and more than 5.00.
In the test with MV-4-11, `CCC(c1cn(C)c2ncc(-c3c(C)noc3C)cc12)C1CCC(F)(F)CC1` (stereo not shown) [P-0118, 4-[3-[1-(4,4-difluorocyclohexyl)propyl]-1-methyl-pyrrolo[2,3-b]pyridin-5-yl]-3,5-dimethyl-isoxazole] yielded a 50% inhibitory concentration (IC50) not above 1 µM. This molecule also had a pIC50 in the test with bromodomain of more than 5.00.
Take `CC(=O)N1CCC(Cc2cn(C)c3ncc(-c4c(C)noc4C)cc23)CC1` [P-0120, 1-[4-[[5-(3,5-dimethylisoxazol-4-yl)-1-methyl-pyrrolo[2,3-b]pyridin-3-yl]methyl]-1-piperidyl]ethanone]: the half-maximal inhibitory concentration (IC50) in the test with MV-4-11 was in the range of 1 to 10 µM. Further, the pIC50 in the test with bromodomain was more than 5.00.
As to `Cc1noc(C)c1-c1cnc2c(-c3cnn(C)c3)cn(S(=O)(=O)c3ccccc3F)c2c1` [P-0121, 4-[1-(2-fluorophenyl)sulfonyl-3-(1-methylpyrazol-4-yl)pyrrolo[3,2-b]pyridin-6-yl]-3,5-dimethyl-isoxazole], the half-maximal inhibitory concentration (IC50) with MV-4-11 is not above 1 µM. Besides, the negative logarithm of the IC50 (pIC50) in the test on bromodomain is more than 5.00.
The matching figures for `Cc1noc(C)c1-c1cnc2c(-c3cnn(C)c3)cn(S(=O)(=O)c3cccc(F)c3)c2c1` [P-0122, 4-[1-(3-fluorophenyl)sulfonyl-3-(1-methylpyrazol-4-yl)pyrrolo[3,2-b]pyridin-6-yl]-3,5-dimethyl-isoxazole]: not above 1 µM and more than 5.00.
In the same order, the values of `Cc1noc(C)c1-c1cnc2c(-c3cnn(C)c3)cn(S(=O)(=O)c3ccc(F)cc3)c2c1` [P-0123, 4-[1-(4-fluorophenyl)sulfonyl-3-(1-methylpyrazol-4-yl)pyrrolo[3,2-b]pyridin-6-yl]-3,5-dimethyl-isoxazole] are not above 1 µM and more than 5.00.
Regarding `CCn1cc(-c2cn(S(=O)(=O)c3ccccc3F)c3cc(-c4c(C)noc4C)cnc23)cn1` [P-0125, 4-[3-(1-ethylpyrazol-4-yl)-1-(2-fluorophenyl)sulfonyl-pyrrolo[3,2-b]pyridin-6-yl]-3,5-dimethyl-isoxazole], in the test with MV-4-11, the IC50 is not above 1 µM. Moreover, the pIC50 in the test on bromodomain was more than 5.00.
The matching figures for `C=CCn1cc(-c2cn(S(=O)(=O)c3ccccc3)c3cc(-c4c(C)noc4C)cnc23)cn1` [P-0126, 4-[3-(1-allylpyrazol-4-yl)-1-(benzenesulfonyl)pyrrolo [3,2-b]pyridin-6-yl]-3,5-dimethyl-isoxazole]: not above 1 µM and more than 5.00.
In the same order, the values of `C=CCn1cc(-c2cn(S(=O)(=O)c3ccccc3F)c3cc(-c4c(C)noc4C)cnc23)cn1` [P-0127, 4-[3-(1-allylpyrazol-4-yl)-1-(2-fluorophenyl)sulfonyl-pyrrolo[3,2-b]pyridin-6-yl]-3,5-dimethyl-isoxazole] are not above 1 µM and more than 5.00.
The molecule `C=CCn1cc(-c2cn(S(=O)(=O)C3CCCC3)c3cc(-c4c(C)noc4C)cnc23)cn1` [P-0128, 4-[3-(1-allylpyrazol-4-yl)-1-cyclopentylsulfonyl-pyrrolo [3,2-b]pyridin-6-yl]-3,5-dimethyl-isoxazole] showed an IC50 with MV-4-11 not above 1 µM. Besides, the pIC50 in the test on bromodomain is more than 5.00.
The matching figures for `C=CCn1cc(-c2cn(S(=O)(=O)CCC(F)(F)F)c3cc(-c4c(C)noc4C)cnc23)cn1` [P-0129, 4-[3-(1-allylpyrazol-4-yl)-1-(3,3,3-trifluoropropylsulfonyl)pyrrolo[3,2-b]pyridin-6-yl]-3,5-dimethyl-isoxazole]: not above 1 µM and more than 5.00.
In the same order, the values of `Cc1noc(C)c1-c1cnc2c(-c3cnn(C(F)F)c3)cn(S(=O)(=O)c3ccccc3)c2c1` [P-0131, 4-[1-(benzenesulfonyl)-3-[1-(difluoromethyl)pyrazol-4-yl]pyrrolo[3,2-b]pyridin-6-yl]-3,5-dimethyl-isoxazole] are not above 1 µM and more than 5.00.
In the same order, the values of `Cc1noc(C)c1-c1cnc2c(-c3cnn(C(F)F)c3)cn(S(=O)(=O)c3ccccc3F)c2c1` [P-0132, 4-[3-[1-(difluoromethyl)pyrazol-4-yl]-1-(2-fluorophenyl)sulfonyl-pyrrolo[3,2-b]pyridin-6-yl]-3,5-dimethyl-isoxazole] are not above 1 µM and more than 5.00.

(Values after US10501460B2, “Heterocyclic compounds and uses thereof” (Plexxikon Inc., priority 2013, dated 2019).)
